Tests used:
[1] = system: Venezuelan equine encephalitis virus; experiment: Selective index against Venezuelan equine encephalitis virus; type: functional
West Nile virus [2] = experiment: Cytotoxicity against West Nile virus; type: organism-based
[3] = Cytotoxicity against Cowpox virus; type: organism-based
SARS-CoV [4] = experiment: Antiviral activity against SARS coronavirus; type: functional, organism-based; conditions: Severe acute respiratory syndrome-related coronavirus
Vaccinia virus [5] = experiment: Selective index against Vaccinia virus; type: functional, Orthopoxvirus vaccinia
[6] = system: Venezuelan equine encephalitis virus; experiment: Cytotoxicity against Venezuelan equine encephalitis virus; type: organism-based
West Nile virus [7] = experiment: Antiviral activity against West Nile virus; type: functional, organism-based
[8] = Cytotoxicity against Vaccinia virus; type: organism-based; conditions: Orthopoxvirus vaccinia
SARS-CoV [9] = experiment: Selective index against SARS coronavirus; type: functional, Severe acute respiratory syndrome-related coronavirus
[10] = system: Venezuelan equine encephalitis virus; experiment: Antiviral activity against Venezuelan equine encephalitis virus; type: functional, organism-based
Yellow fever virus [11] = experiment: Cytotoxicity against Yellow fever virus; type: organism-based
SARS-CoV [12] = experiment: Cytotoxicity against SARS coronavirus; type: organism-based; conditions: Severe acute respiratory syndrome-related coronavirus
Yellow fever virus [13] = experiment: Antiviral activity against Yellow fever virus; type: functional, organism-based
Yellow fever virus [14] = experiment: Selective index against Yellow fever virus; type: functional
Cowpox virus [15] = experiment: Selective index against Cowpox virus; type: functional
Vaccinia virus [16] = experiment: Antiviral activity against Vaccinia virus; type: functional, organism-based; conditions: Orthopoxvirus vaccinia
Cowpox virus [17] = experiment: Antiviral activity against Cowpox virus; type: functional, organism-based

Structure (SMILES): NC(=O)c1cn([C@@H]2C=C(CO)[C@@H](O)[C@H]2O)cn1
- Selectivity index [1]: 0
- IC50 (West Nile virus [2]): > 100 µM
- IC50 [3]: > 300 µM
- EC50 (SARS-CoV [4]): > 100 µM
- Selectivity index (Vaccinia virus [5]): 0
- IC50 [6]: > 100 µM
- EC50 (West Nile virus [7]): > 100 µM
- IC50 [8]: > 300 µM
- Selectivity index (SARS-CoV [9]): 0
- EC50 [10]: > 100 µM
- IC50 (Yellow fever virus [11]): > 100 µM
- IC50 (SARS-CoV [12]): > 100 µM
- EC50 (Yellow fever virus [13]): > 100 µM
- Selectivity index (Yellow fever virus [14]): 0
- Selectivity index (Cowpox virus [15]): 0
- EC50 (Vaccinia virus [16]): > 300 µM
- EC50 (Cowpox virus [17]): > 300 µM

Structure (SMILES): NC(=O)c1cn([C@@H]2C=C(CO)[C@@H](O)[C@H]2O)nn1
- Selectivity index [1]: 0
- IC50 (West Nile virus [2]): > 100 µM
- IC50 [3]: > 300 µM
- EC50 (SARS-CoV [4]): 47 µM
- Selectivity index (Vaccinia virus [5]): >750
- IC50 [6]: > 100 µM
- EC50 (West Nile virus [7]): > 100 µM
- IC50 [8]: > 300 µM
- Selectivity index (SARS-CoV [9]): >2.1
- EC50 [10]: > 100 µM
- IC50 (Yellow fever virus [11]): > 100 µM
- IC50 (SARS-CoV [12]): > 100 µM
- EC50 (Yellow fever virus [13]): > 100 µM
- Selectivity index (Yellow fever virus [14]): 0
- Selectivity index (Cowpox virus [15]): >7.7
- EC50 (Vaccinia virus [16]): 0.4 µM
- EC50 (Cowpox virus [17]): 39 µM

Structure (SMILES): NC(=O)c1ncn([C@@H]2C=C(CO)[C@@H](O)[C@H]2O)n1
- Selectivity index [1]: 0
- IC50 (West Nile virus [2]): > 100 µM
- IC50 [3]: > 300 µM
- EC50 (SARS-CoV [4]): 21 µM
- Selectivity index (Vaccinia virus [5]): 0
- IC50 [6]: > 100 µM
- EC50 (West Nile virus [7]): > 100 µM
- IC50 [8]: > 300 µM
- Selectivity index (SARS-CoV [9]): >4.8
- EC50 [10]: > 100 µM
- IC50 (Yellow fever virus [11]): > 100 µM
- IC50 (SARS-CoV [12]): > 100 µM
- EC50 (Yellow fever virus [13]): > 100 µM
- Selectivity index (Yellow fever virus [14]): 0
- Selectivity index (Cowpox virus [15]): 0
- EC50 (Vaccinia virus [16]): > 300 µM
- EC50 (Cowpox virus [17]): > 300 µM

Structure (SMILES): Nc1ccn(C[C@@H](CO)OCP(=O)(O)O)c(=O)n1 [CIDOFOVIR]
- IC50 [3]: > 317 µM
- IC50 [8]: < 317 µM
- EC50 (Vaccinia virus [16]): 6 µM

From ChEMBL document CHEMBL1148631, “Synthesis of cyclopentenyl carbocyclic nucleosides as potential antiviral agents against orthopoxviruses and SARS” (J Med Chem, 2006)
